Laboratory results published in the supplement of paper PMC10307832.

Tests used:
Experiment in all cases: relative viability (nuclei count vs DMSO), 5 days (fraction); higher = more cells survive
VX-11e + Dasatinib = compound: CC1=CN=C(N=C1C2=CNC(=C2)C(=O)N[C@H](CO)C3=CC(=CC=C3)Cl)NC4=C(C=C(C=C4)F)Cl [VX-11e] + Cc1nc(Nc2ncc(C(=O)Nc3c(C)cccc3Cl)s2)cc(N2CCN(CCO)CC2)n1 [Dasatinib] (partner 0.075 µM)
Summary of the method: (§1)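 Lung cancer cell lines were seeded in 1536-well plates and dosed by pin tool the next day, with either a single drug or a fixed anchor-drug dose combined with five library-drug doses (not always all listed) spaced in √10 steps. Five days later, one step fixed the cells and stained their nuclei (final 0.05% Triton X-100, 1% formaldehyde, 1 ug/ml Hoechst), and nuclei were counted on 4× images. Relative viability is the nuclei count in treated wells divided by the count in vehicle wells, and each value is the median of duplicate plates.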

VX-11e + Tozasertib = compound: CC1=CN=C(N=C1C2=CNC(=C2)C(=O)N[C@H](CO)C3=CC(=CC=C3)Cl)NC4=C(C=C(C=C4)F)Cl [VX-11e] + Cc1cc(Nc2cc(N3CCN(C)CC3)nc(Sc3ccc(NC(=O)C4CC4)cc3)n2)n[nH]1 [Tozasertib] (partner 0.1 µM)
Summary of the method: as §1

VX-11e + Alpelisib = compound: CC1=CN=C(N=C1C2=CNC(=C2)C(=O)N[C@H](CO)C3=CC(=CC=C3)Cl)NC4=C(C=C(C=C4)F)Cl [VX-11e] + Cc1nc(NC(=O)N2CCC[C@H]2C(N)=O)sc1-c1ccnc(C(C)(C)C(F)(F)F)c1 [Alpelisib] (partner 2 µM)
Summary of the method: as §1

VX-11e + Luminespib = compound: CC1=CN=C(N=C1C2=CNC(=C2)C(=O)N[C@H](CO)C3=CC(=CC=C3)Cl)NC4=C(C=C(C=C4)F)Cl [VX-11e] + CCNC(=O)c1noc(-c2cc(C(C)C)c(O)cc2O)c1-c1ccc(CN2CCOCC2)cc1 [Luminespib] (partner 0.01 µM)
Summary of the method: as §1

Row | Cell Line | relative viability (VX-11e + Dasatinib; first compound 0.04 µM) | relative viability (VX-11e + Dasatinib; first compound 0.1265 µM) | relative viability (VX-11e + Dasatinib; first compound 0.4 µM) | relative viability (VX-11e + Dasatinib; first compound 1.265 µM) | relative viability (VX-11e + Dasatinib; first compound 4 µM) | relative viability (VX-11e + Tozasertib; first compound 0.04 µM) | relative viability (VX-11e + Tozasertib; first compound 0.1265 µM) | relative viability (VX-11e + Tozasertib; first compound 0.4 µM) | relative viability (VX-11e + Tozasertib; first compound 1.265 µM) | relative viability (VX-11e + Tozasertib; first compound 4 µM) | relative viability (VX-11e + Alpelisib; first compound 0.04 µM) | relative viability (VX-11e + Alpelisib; first compound 0.1265 µM) | relative viability (VX-11e + Alpelisib; first compound 0.4 µM) | relative viability (VX-11e + Alpelisib; first compound 1.265 µM) | relative viability (VX-11e + Alpelisib; first compound 4 µM) | relative viability (VX-11e + Luminespib; first compound 0.04 µM) | relative viability (VX-11e + Luminespib; first compound 0.1265 µM) | relative viability (VX-11e + Luminespib; first compound 0.4 µM) | relative viability (VX-11e + Luminespib; first compound 1.265 µM) | relative viability (VX-11e + Luminespib; first compound 4 µM)
1 | 201T | 0.58 | 0.536 | 0.486 | 0.502 | 0.495 | 0.99 | 0.923 | 0.941 | 0.909 | 0.774 | 1.01 | 0.989 | 0.995 | 1.08 | 0.92 | 1.06 | 1.06 | 1.09 | 1.05 | 0.918
2 | A-427 | 0.751 | 0.574 | 0.488 | 0.232 | 0.114 | 0.181 | 0.18 | 0.132 | 0.143 | 0.16 | 0.962 | 1.06 | 0.878 | 0.667 | 0.239 | 1.05 | 0.865 | 0.642 | 0.687 | 0.483
3 | ABC-1 | 0.72 | 0.551 | 0.468 | 0.561 | 0.497 | 0.137 | 0.219 | 0.175 | 0.123 | 0.188 | 0.988 | 0.735 | 0.832 | 0.857 | 0.725 | – | – | 0.495 | 0.436 | 0.518
4 | BEN | – | 0.277 | 0.399 | 0.236 | 0.252 | – | 0.477 | 0.642 | 0.456 | 0.417 | 1.14 | 0.906 | 1.04 | 0.612 | 0.806 | – | 0.241 | 0.475 | 0.376 | 0.264
5 | CAL-12T | 0.466 | 0.34 | 0.249 | 0.243 | 0.111 | 0.384 | 0.25 | 0.26 | 0.247 | 0.155 | 1.4 | 1.03 | 1.07 | 0.898 | 0.295 | 0.392 | 0.434 | 0.462 | 0.433 | 0.276
6 | COR-L23 | 0.486 | 0.453 | 0.442 | 0.355 | 0.208 | 0.157 | 0.142 | 0.138 | 0.124 | 0.127 | 0.913 | 0.742 | 0.669 | 0.379 | 0.17 | 0.787 | 0.577 | 0.5 | 0.532 | 0.234
7 | COR-L 105 | 0.316 | 0.344 | 0.33 | 0.198 | 0.229 | 0.341 | 0.342 | 0.367 | 0.721 | 0.268 | 0.929 | 0.973 | 0.799 | 0.329 | 0.357 | 0.978 | 0.391 | 0.825 | 0.592 | 0.375
8 | Calu-6 | – | – | – | – | – | – | – | – | – | – | 1.12 | 0.98 | 0.94 | 0.456 | 0.125 | – | – | – | – | –
9 | ChaGo-K-1 | 0.516 | 0.587 | 0.584 | 0.654 | 0.557 | 0.219 | 0.233 | 0.234 | 0.188 | 0.186 | – | – | – | – | – | 0.633 | 0.646 | 0.561 | 0.688 | 0.507
